Assays:
[1] = test system: Hard Red Spring Wheat (HRSW); assay: Seed treatment of hard red spring wheat in vitro (plates); format: in vivo; conditions: seed coating 125 μl of 10^−6 M; for Number of Lateral Roots / Number of Primary Roots: 4-5 days after transfer
Experimental: Hard red spring wheat seeds were surface sterilized using ethanol and bleach. The sterilized seeds were then divided among 4 treatment groups of 5 grams each into 50 ml falcon tubes. To the control tube, 0.5% ethanol in water was added. To the CO4 tube, 125 μl of 10^−6 M CO4 solution was added. To the CO8 tube, 125 μl of 10^−6 M CO8 solution was added. To the “Consensus” tube, 125 μl of 10^−6 M solution of chitosan (CONSENSUS® chitosan; Loveland Products, Inc., Loveland, Colo.) was added. Each tube was then shaken to coat the seeds. The coated seeds were then placed on sterile Petri dishes in a hood and were left to dry overnight in the hood.
The seeds were then germinated on damp germination paper in sterile Petri dishes for 4 days. The resulting seedlings were transferred to Fahräeus medium plates containing damp germination paper, and the plates were wrapped in Parafilm®. Fahräeus medium contains 0.5 m M MgSO4, 0.7 mM KH2PO4, 0.4 mM Na2HPO4, 0.02 mM Fe-EDTA, 0.01 mM MnSO4, 0.007 mM CuSO4, 0.006 mM ZnSO4, 0.016 mM H3BO3, 0.001 mM Na2MoO4, and 15 g/L Agar for plant tissue, adjusted to pH 6.5 before autoclaving. The plants were grown at room temperature under continuous light for 4-5 days. The number of primary roots (PR), lateral roots (LR), root system length (RSL) and dry weight (DW) was then measured for all plants.

[2] = test system: rice atrichoblasts on lateral roots; assay: Calcium spiking (YC3.6 imaging) in rice atrichoblasts on lateral roots; format: cell-based, Oryza sativa cv Nipponbare; conditions: for calcium oscillations: FIG. 1; for calcium oscillations, CO4 compared with CO8: 10^−8M and 10^−5 M, FIG. 2
Experimental: Mycorrhizal induced calcium responses were measured as described previously (14). Transgenic Oryza sativa Nipponbare lines carrying Yellow Cameleon 3.6 (YC3.6) FRET-based calcium sensor was used to detect calcium spiking. YC3.6 was imaged on a Nikon Eclipse Ti inverted microscope (Nikon, Japan) equipped with an OptoLED Illuminator (model OptoLED, Cairn Research Ltd, UK). YC3.6 was excited at a wavelength of 455 nm using a royal blue LED and was captured with a charge-coupled device (CCD) camera (model RETIGA-SRV, Qimaging, Canada). Emitted fluorescence was separated by an image splitter with a dichroic mirror (model Optosplit II, Cairn Research Ltd, UK) and then passed through a fluorescence filter set. Images were collected every 5 seconds with 1-second exposure and analyzed using MetaFluor (Molecular Devices, Sunnyvale, Calif., USA).
For Bayesian Spectrum Analysis we computed the most probable periods in the time series following published procedures (15). Ten traces per treatment were analyzed. The joint distributions over the period were used to characterize each group. The plots show binned data to summarize the key periods. These ten traces per treatment were also analyzed for interspike intervals. The point of maximum height for each spike was computed after detrending of the time series using a moving average algorithm. The distances between these maxima gave rise to an interspike distribution. We used the non-parametric Mann-Whitney U-test, also known as the Mann-Whitney-Wilcoxon test (16, 17) to test for significant differences between the distributions.
Three traces per treatment, with approximately 80 spikes altogether, were analyzed for calcium spike characteristics. […] The traces were detrended using a moving average algorithm (18). We then characterized the spikes by the time required for each upward and downward phase. This was computed by the number of data points it took from the maximum spike height to the baseline fluctuation of the trace. The plots show the mean value of the upward and downward phases for each treatment, and the associated standard deviations are indicated by the error bars.
Calcium responses were assessed using a stably transformed line of Oryza sativa cv Nipponbare carrying YC3.6. […] To test an array of different LCO structures, we analyzed calcium spiking in response to Nod factor isolations from the broad host range rhizobial species, Rhizobium sp. NGR234, as well as Rhizobium tropici, in addition to the Myc-LCOs.

rice [3] = assay: Root architecture modification in wild-type rice after submersion treatment; format: in vivo, Oryza sativa cv Nipponbare; conditions: 10^−8M, 24 hours submersion, assessed after two weeks, FIG. 3
Experimental: Oryza sativa cv Nipponbare wild-type and Tos17 insertion lines in POLLUX (line NC6453) and DMI3 were used for root architecture experiments (12, 13). Seeds were prepared by sterilizing with 2% bleach for 20 minutes, followed by 3, 5-minute rinses with sterile water. The sterile seeds were then imbibed overnight. Seeds were then plated on damp germination paper in Petri plates under sterile conditions and germinated in the dark at 25 degrees for 7 days. Germinated rice plants were then plated on Fahraeus medium on germination paper and grown at 22 degrees under constant light. After 5 days the plants were treated with 10^−8M LCOs and COs for 24 hours by submersion and re-plated onto Fåhræus Medium 1.5% agar plates (0.132 g/L CaCl2, 0.12 g/L MgSO4.7H2O, 0.1 g/L KH2PO4, 0.075 g/L Na2HPO4.2H2O, 5 mg/L Fe-citrate, and 0.07 mg/L each of MnCl2.4H2O, CuSO4.5H2O, ZnCl2, H3BO3, and Na2MoO4.2H2O, adjusted to pH 6.5 before autoclaving). As all signals were suspended in 50% ethanol, the appropriate concentration of ethanol in sterile DI water served as a control. Root system architecture was assessed after 2 weeks.
Total lateral roots of rice were enumerated manually two weeks after application of 10^−8M COs and LCOs. As COs and LCOs were suspended in 50% ethanol, the control is sterile deionized water containing the appropriate amount of ethanol. Lateral roots were defined as large and fine lateral roots emerging from crown roots, as well as fine lateral roots emerging from large lateral roots. Root system length was measured starting from the root-shoot junction to the tip of the longest root. The number of crown roots was assessed manually as those roots emerging from the root-shoot junction. Root type characterizations were based upon the descriptions in Gutjahr et al. (19). Data were assessed for normality using the Shapiro-Wilk test (α=0.01), and statistical significance was determined using a paired t-test assuming unequal variances, or a Mann-Whitney-Wilcoxon Test if normality was not observed (α=0.05). All statistical analysis was conducted using the R software package (20).

Rice [4] = assay: Seed treatment of rice in vitro (plates); format: in vivo; conditions: seed coating 10^−6 M; 33 days; vs ethanol control; FIG. 10
Experimental: Rice seeds were sterilized using 2% bleach. The sterilized seeds were then divided among 3 treatment groups of 10 seeds each into 15 ml falcon tubes. To the control tube, 0.5% ethanol in water was added. To the CO4 tube, 100 μl of 10^−6 M CO4 solution was added. To the CO8 tube, 100 μl of 10^−6 M CO8 solution was added. Each tube was then shaken to coat the seeds. The coated seeds were then placed on sterile Petri dishes in a hood and were left to dry overnight in the hood. The seeds were then germinated on damp germination paper in sterile Petri dishes for 5 days. The resulting seedlings were transferred to Fahräeus medium plates containing damp germination paper, and the plates were wrapped in Parafilm®. The roots part of the plate was covered with aluminum foil. The plants were grown at room temperature under continuous light for 33 days. The length of the shoot and root systems was measured for all plants.

| SMILES | Dry Weight [1] | Number of Lateral Roots [1] | Number of Primary Roots [1] | calcium oscillations ([2]; 10^−5M, rice large lateral roots, epidermal cells (atrichoblasts)) | calcium oscillations, CO4 compared with CO8 [2] | calcium oscillations ([2]; 10^−8M, rice epidermal cells, robustness and number of responsive cells reduced) | crown root growth (rice [3]) | lateral root growth (rice [3]) | root system length (Rice [4]) | shoot length (Rice [4]) | Root System Length (cm) ([1]; * significant at P < 0.05) |
| --- | --- | --- | --- | --- | --- | --- | --- | --- | --- | --- | --- |
| CC(=O)N[C@H]1[C@H](O[C@H]2[C@H](O)[C@@H](NC(C)=O)C(O)O[C@@H]2CO)O[C@H](CO)[C@@H](O[C@@H]2O[C@H](CO)[C@@H](O[C@@H]3O[C@H](CO)[C@@H](O)[C@H](O)[C@H]3NC(C)=O)[C@H](O)[C@H]2NC(C)=O)[C@@H]1O (some centres unmarked) [CO4, tetra-N-acetylchitotetraose] | 0.0206 g | 3.73 | 5.20 | strong calcium oscillations | respond equally well | still showed calcium oscillations | promoted | promoted | significantly increased | significantly increased |  |
| CC(=O)N[C@H]1[C@H](O[C@H]2[C@H](O)[C@@H](NC(C)=O)[C@H](O[C@H]3[C@H](O)[C@@H](NC(C)=O)[C@H](O[C@H]4[C@H](O)[C@@H](NC(C)=O)C(O)O[C@@H]4CO)O[C@@H]3CO)O[C@@H]2CO)O[C@H](CO)[C@@H](O[C@@H]2O[C@H](CO)[C@@H](O[C@@H]3O[C@H](CO)[C@@H](O[C@@H]4O[C@H](CO)[C@@H](O[C@@H]5O[C@H](CO)[C@@H](O)[C@H](O)[C@H]5NC(C)=O)[C@H](O)[C@H]4NC(C)=O)[C@H](O)[C@H]3NC(C)=O)[C@H](O)[C@H]2NC(C)=O)[C@@H]1O (some centres unmarked) [CO8, octa-N-acetyl-chitooctaose] | 0.0191 g | 3.00 | 5.20 |  | respond equally well |  | promoted | promoted |  |  | 11.51 cm |

Reference: patent publication US10149472B2, “Chitin oligomers for use in promoting non-leguminous plant growth and development” (Wisconsin Alumni Research Foundation, priority 2015, dated 2018)
